Assay results published in US10952988B2, “Methods for controlling the spread of dirofilariosis” (priority 2015, dated 2021).

Test system: Dirofilaria immitis (JYD-34) resistant strain
Conditions: in vivo

For milbemycin oxime, the “average worms per dog” value was 7.2 worms per dog and the “efficacy (adult worm reduction versus untreated Group 1)” value was 70.7%.
